Where two headings read alike, the source gives them in different places.
Legend:
[1] = system: parental HEK cells; assay: HEK parental Agonist Counterscreen Assay (non-transfected cells); assay type: cell-based; conditions: for Averaged Max % Response (±St. Dev.): activity relative to known control
Excerpt: The high control for the agonist counterscreen was Forskolin not acetylcholine.

[2] = target: T1, GPR139 (Homo sapiens, UniProt Q6DWJ6); assay: GPR139 Agonist titration / agonist counterscreen assay (calcium detection, HEK-GPR139 cells); assay type: cell-based; set-up: expressed in transfected cells; host or cells: HEK Aequorin cells, Maxcyte transient transfection; conditions: GPR139 Agonist Activity; for Averaged Max % Response (±St. Dev.): activity relative to known control; for EC50: read-out: EC50
T1 sequence (Q6DWJ6 1-353): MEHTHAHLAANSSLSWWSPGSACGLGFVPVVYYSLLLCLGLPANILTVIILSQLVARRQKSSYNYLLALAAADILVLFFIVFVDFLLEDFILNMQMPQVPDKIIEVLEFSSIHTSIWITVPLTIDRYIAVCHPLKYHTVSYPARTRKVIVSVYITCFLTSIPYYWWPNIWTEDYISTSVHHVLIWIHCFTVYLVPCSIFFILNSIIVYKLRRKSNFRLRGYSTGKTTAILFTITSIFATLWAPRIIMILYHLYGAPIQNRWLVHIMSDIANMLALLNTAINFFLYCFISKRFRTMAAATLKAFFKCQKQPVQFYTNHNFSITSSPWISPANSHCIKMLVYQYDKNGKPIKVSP
Experimental: GPR activity was assessed using a calcium detection assay. […] Negative control samples were treated with DMSO. […] Intracellular calcium was measured using Calcium 5.

[3] = HEK Agonist Activity section of Table 4 (parental HEK counterscreen)
[4] = values printed in E-notation without unit
[5] = Homo sapiens, HEK293, HEK Agonist Activity section of Table 4 (parental HEK counterscreen)
[6] = HEK Agonist Activity, parental non-transfected HEK cells
[7] = Homo sapiens, HEK293, HEK Agonist Activity, parental non-transfected HEK cells

Row | SMILES | Lipophilic Efficiency (logD) ([1]; HEK Agonist Activity section) | Lipophilic Efficiency (logP) ([1]; HEK Agonist Activity section) | Averaged Max % Response (±St. Dev.) ([1]; HEK Agonist Activity section) [%] | Averaged Max % Response (±St. Dev.) [2] [%] | Lipophilic Efficiency (logD) ([2]; based on logD) | Lipophilic Efficiency (logP) ([2]; based on logP) | Hill Slope ([2]; fitted dose-response curve) | Efficiency Ligand ([2]; ligand efficiency) | EC50 [2, 4] [µM] | EC50 [1, 5] [µM] | further results
1 | O=c1nc(SCc2ccccc2F)c2c([nH]1)CCC2 [SR-01000914970] | 2.03 | 2.02 | −5.66 ± 4.95 | 101.00 ± 9.27 | 3.98 | 3.97 | 0.53 | 0.50 | 0.158 |  | EC50 [1, 3]: > 14.1 µM
2 | COc1ccccc1-c1nnc(NC(=O)Cc2ccc(C)cc2C)o1 [SR-01000915644] | 1.25 | 1.25 | −2.94 ± 0.56 | 98.09 ± 3.30 | 3.69 | 3.69 | 0.31 | 0.41 | 0.051 | > 14.1 | 
3 | Cc1cccc(COc2coc(COc3nccn3C)cc2=O)c1 [SR-01000916033] | 2.68 | 2.68 | 25.93 ± 6.51 | 104.22 ± 8.56 | 5.04 | 5.04 | 0.34 | 0.42 | 0.0619 | > 14.1 | 
4 | COc1ccc(CCC(=O)Nc2ccc(OC)c(N3CCCC3=O)c2)cc1 [SR-01000916271] | 2.35 | 2.35 | 29.38 ± 9.84 | 111.55 ± 2.57 | 4.82 | 4.82 | 0.34 | 0.38 | 0.0479 | > 14.1 | 
5 | O=C1CCCCN1c1cccc(NS(=O)(=O)c2cc(Cl)ccc2Cl)c1 [SR-01000916375] | 1.86 | 1.41 | −1.52 ± 2.20 | 91.29 ± 4.98 |  |  |  |  |  | > 14.1 | Efficiency Ligand [2]: 0.36; Hill Slope [2]: 0.68; Lipophilic Efficiency (logD) [2]: 3.43; Lipophilic Efficiency (logP) [2]: 2.99; EC50 ([2]; HEK-GPR139 cells): 0.373 µM
6 | COCCn1c(C)c(C(=O)NC(C)CCc2ccccc2)c2nc3ccccc3nc21 (centres unmarked) [SR-01000918134] | 0.66 | 0.66 | −11.92 ± 3.45 | 116.95 ± 4.02 | 3.05 | 3.05 |  | 0.33 |  | > 14.1 | 
7 | CCn1c(=O)c([N+](=O)[O-])c(NCCc2ccc(OC)cc2)c2ccccc21 [SR-01000918303] | 2.37 | 2.37 | −6.52 ± 9.86 | 84.68 ± 8.82 | 4.29 | 4.29 | 0.73 | 0.35 | 0.166 |  | EC50 [1, 3]: > 14.1 µM
8 | COc1ccc(C2(C)NC(=O)N(CC(=O)Nc3cc(C)ccc3C)C2=O)cc1 (centres unmarked) [SR-01000918716] |  |  |  | 111.04 ± 7.77 | 5.74 | 5.74 |  | 0.43 |  |  | Hill Slope ([1]; HEK Agonist Activity): 0.85; Lipophilic Efficiency (logD) ([1]; HEK Agonist Activity): 2.34; Lipophilic Efficiency (logP) ([1]; HEK Agonist Activity): 2.34; Averaged Max % Response (±St. Dev.) ([1]; HEK Agonist Activity): 92.04 ± 16.23%; EC50 [1, 6]: 5.5 µM
9 | COc1ccc(C2(C)NC(=O)N(CC(=O)NC3CCCC3)C2=O)cc1 (centres unmarked) [SR-01000918718] |  |  |  | 106.93 ± 8.46 | 6.47 | 6.47 | 0.93 | 0.43 | 0.0199 |  | Lipophilic Efficiency (logD) ([1]; HEK Agonist Activity): 3.62; Lipophilic Efficiency (logP) ([1]; HEK Agonist Activity): 3.62; Averaged Max % Response (±St. Dev.) ([1]; HEK Agonist Activity): 16.28 ± 3.44%; EC50 [1, 6]: > 14.1 µM
10 | C=C1CC(C)(c2ccc(OC)cc2)C(=C)C1CC(=O)CC1CCCCC1 (centres unmarked) [SR-01000918719] | 3.17 | 3.17 | 19.77 ± 4.52 | 94.25 ± 9.34 | 5.17 | 5.17 | 0.65 | 0.37 |  | > 14.1 | 
11 | COc1ccc(C2(C)NC(=O)N(CC(=O)NCc3ccc(F)cc3)C2=O)cc1 (centres unmarked) [SR-01000918720] | 3.10 | 3.10 | 24.77 ± 3.77 | 107.14 ± 13.14 | 5.56 | 5.56 | 0.42 | 0.37 | 0.0489 | > 14.1 | 
12 | COc1ccc(C2(C)NC(=O)C(CC(=O)NCCc3ccccc3)C2=O)cc1 (centres unmarked) [SR-01000918721] |  |  |  | 107.86 ± 14.78 | 5.70 | 5.70 | 0.48 | 0.38 | 0.0256 |  | Lipophilic Efficiency (logD) ([1]; HEK Agonist Activity): 2.96; Lipophilic Efficiency (logP) ([1]; HEK Agonist Activity): 2.96; Averaged Max % Response (±St. Dev.) ([1]; HEK Agonist Activity): 9.27 ± 15.15%; EC50 [1, 7]: > 14.1 µM
13 | CCOc1nn(CC)cc1-c1nnc(SCc2ccc(C(=O)OC)cc2)n1C [SR-01000919746] |  |  |  | 101.90 ± 10.65 | 3.89 | 3.89 | 0.63 | 0.38 | 0.0281 |  | Lipophilic Efficiency (logD) ([1]; HEK Agonist Activity): 1.19; Lipophilic Efficiency (logP) ([1]; HEK Agonist Activity): 1.19; Averaged Max % Response (±St. Dev.) ([1]; HEK Agonist Activity): −13.54 ± 17.63%; EC50 [1, 7]: > 14.1 µM
14 | Cc1cc(-c2nnc(NC(=O)CCc3ccccc3)o2)n(C)n1 [SR-01000920602] | 3.19 | 3.19 | −28.12 ± 1.91 | 90.23 ± 7.66 |  |  |  |  |  | > 14.1 | Efficiency Ligand [2]: 0.39; Hill Slope [2]: 0.91; Lipophilic Efficiency (logD) [2]: 4.83; Lipophilic Efficiency (logP) [2]: 4.83; EC50 ([2]; HEK-GPR139 cells): 0.325 µM
15 | O=C(CCc1ccccc1)Nc1nnc(Cc2cccs2)o1 [SR-01000920660] | 1.83 | 1.83 | −18.29 ± 7.41 | 83.52 ± 6.71 |  |  |  |  |  | > 14.1 | Efficiency Ligand [2]: 0.41; Hill Slope [2]: 1.17; Lipophilic Efficiency (logD) [2]: 3.39; Lipophilic Efficiency (logP) [2]: 3.39; EC50 ([2]; HEK-GPR139 cells): 0.387 µM

From patent US20250099420A1, “SMALL MOLECULE MODULATORS OF GPR139 COMPLEX” (University of Florida Research Foundation, Incorporated, priority 2022, published 2025)
